Experimental data taken from patent publication US7319000B1, “Compositions and methods for eliciting immune or anti-infective responses” (priority 1992, dated 2008).

Legend:
BALB/c mice = experiment: Anti-peptide antibody response (ELISA) in BALB/c mice immunized with peptide multimers; assay type: in vivo; parameters: key to Antipeptide Antibody Reactivity to Analogous Peptide: −: cpm values are corrected and categorized according to unrelated antigen response in vitro.; •: Not determined.; +: cpm values are corrected and categorized according to unrelated antigen response in vitro.; ++: cpm values are corrected and categorized according to unrelated antigen response in vitro.; +++: cpm values are corrected and categorized according to unrelated antigen response in vitro.; ++++: cpm values are corrected and categorized according to unrelated antigen response in vitro; details: for Antipeptide Antibody Reactivity to Analogous Peptide: antibody raised in Balb/C mice, ELISA end point; for anti-peptide antibody response (in words): high molecular weight forms of the peptides; for anti-peptide antibody production (in words): disulfide (di-Cys) polymeric form
[1] = test system: PLN cells from B6C3F1 mice; experiment: In vitro proliferation (3H-TdR) of PLN cells from immunized B6C3 F1 mice; assay type: in vivo; parameters: key to In Vitro Proliferation of PLN Cells from B6C3F1, Analogous Peptide / In Vitro Proliferation of PLN Cells from B6C3F1, GP 160: −: cpm values are corrected and categorized according to unrelated antigen response in vitro.; •: Not determined.; +: cpm values are corrected and categorized according to unrelated antigen response in vitro.; ++: cpm values are corrected and categorized according to unrelated antigen response in vitro.; +++: cpm values are corrected and categorized according to unrelated antigen response in vitro.; ++++: cpm values are corrected and categorized according to unrelated antigen response in vitro; details: for In Vitro Proliferation of PLN Cells from B6C3F1, GP 160: in vitro antigen: GP 160; for In Vitro Proliferation of PLN Cells from B6C3F1, Analogous Peptide: in vitro antigen: analogous peptide; for T cell response against the corresponding peptide and native HIV envelope protein gp160 (in words): disulfide (di-Cys) polymeric form
[2] = test system: PLN cells from A SW × Balb/c F1 mice; experiment: In vitro proliferation (3H-TdR) of PLN cells from immunized A.SW x BALB/c F1 mice; assay type: in vivo, A.SWXBALB/C F1 mice; parameters: key: −: cpm values are corrected and categorized according to unrelated antigen response in vitro.; •: Not determined.; +: cpm values are corrected and categorized according to unrelated antigen response in vitro.; ++: cpm values are corrected and categorized according to unrelated antigen response in vitro.; +++: cpm values are corrected and categorized according to unrelated antigen response in vitro.; ++++: cpm values are corrected and categorized according to unrelated antigen response in vitro; details: for In Vitro Proliferation of PLN Cells from A SW × Balb/c F1, GP 160: in vitro antigen: GP 160; for In Vitro Proliferation of PLN Cells from A SW × Balb/c F1, Analogous Peptide: in vitro antigen: analogous peptide
[3] = test system: PBMCs of immunized rhesus monkeys; experiment: PBMC proliferation in rhesus monkeys immunized with a mixture of eight synthetic peptides; assay type: in vivo; parameters: key to T-cell Proliferation Responses: —: no detectable response; 1+: poor response; 2+: good response; 3+: better response; 4+: best response; 6+: best response; details: for T-cell Proliferation Responses: PBMC response to the individual peptide or gp160; for PBMC proliferative responses (in words): three rhesus monkeys, monitored for 32 weeks
Method: In the present studies, three rhesus monkeys (#7, #23 and #283C) were immunized subcutaneously with 1 ml (0.1 ml/site) of a mixture of eight synthetic peptides (300·g of each peptide in sterile water) emulsified in complete Freund's adjuvant at 1:1 ratio. […] At 3 and 7 weeks after the primary immunization, two booster injections of the peptide mixture (150·g of each peptide in sterile water) emulsified in incomplete Freund's adjuvant were given to each monkey. Monkey #7 was terminated after […], for health reasons unrelated to the study, while the remaining two monkeys (#283C and #23) received one additional booster injection at 25 weeks.
At two week intervals following the first immunization of each animal, 15 ml of whole heparinized blood was collected by venous puncture. The peripheral blood mononuclear cells (PBMC) were separated by standard ficoll-hypaque centrifugation and employed in proliferation assays. The PBMCs were monitored every two weeks for a period of 32 weeks for proliferative responses against individual peptides and recombinant gp160.

[4] = test system: HIV-1 IIIB infection of human cells; assay type: cell-based; also: test concentration or dose not given here

Sequence	Antipeptide Antibody Reactivity to Analogous Peptide (BALB/c mice)	anti-peptide antibody response (in words) (BALB/c mice)	In Vitro Proliferation of PLN Cells from B6C3F1, GP 160 [1]	In Vitro Proliferation of PLN Cells from B6C3F1, Analogous Peptide [1]	In Vitro Proliferation of PLN Cells from A SW × Balb/c F1, GP 160 [2]	In Vitro Proliferation of PLN Cells from A SW × Balb/c F1, Analogous Peptide [2]	anti-peptide antibody production (in words) (BALB/c mice)	T-cell Proliferation Responses ([3]; Rhesus Monkey #7)	T-cell Proliferation Responses ([3]; Rhesus Monkey #23)	T-cell Proliferation Responses ([3]; Rhesus Monkey #283C)	PBMC proliferative responses (in words) [3]	T cell response against the corresponding peptide and native HIV envelope protein gp160 (in words) [1]	% RT INHIBITION [4] [%]
AHKVWATHACV [Peptide 106]	++	high antibody titers	+	+++	+	++++							
CRIKQIINMWQGVGKAMYA [Peptide 65, gp160 aa 417-435; polymeric form of the T-helper cell peptide]	++	high antibody titers	+	++	++	++++							
CVPTNPVPQEVV [Peptide 107]	+	high antibody titers	++	++	+	+							
EQMHEDIISLWDQ [Peptide 110]	++++	high antibody titers	−	++	+	++							
FEPIPIHYCAFPGF [Peptide 114]	++++	high antibody titers	−	++	+	++							
FLGFLGAAGSTMGAASLTLTVQANQ [Peptide 63, gp160 aa 519-543]	•	very low to negligible amounts of anti-peptide antibodies	++	++	++	++	do not stimulate anti-peptide antibody production	2+	4+	3+	good proliferative responses	strong T cell response	
GIAIGPGRTLYAREK [Peptide D27, V3 loop peptide, strain NY-5]													0
GIHFGPGQALYTTGI [Peptide D33, V3 loop peptide, strain MAL]													0
GTGPCTNVSTVQC [Peptide 116]	−	very low to negligible amounts of anti-peptide antibodies	−	++				1+	3+	2+	weak responses		
GVPVWKEATTLFC [Peptide 105]	•	high antibody titers	+++	++++	−	+					A significant response was not detected		
KKFNGTGPCTN [Peptide 115]	++	high antibody titers	+	++									
LWDQSLKPCVKLT [Peptide 111]	−	very low to negligible amounts of anti-peptide antibodies	++	+	−	•		3+	2+	3+	good proliferative responses		
NNMVEQMHEDI [Peptide 109]	+++	high antibody titers	•	++	+	•							
NNTRKSITKGPGRVIYATGQIIGD [Peptide D26, V3 loop peptide, strain RF]													72.2
SLKPCVKLTPLC [Peptide 112]	+	high antibody titers	+	+	+	+							
SVITQACSKVSFE [Peptide 113]	−	very low to negligible amounts of anti-peptide antibodies	+	++	+	++	do not stimulate anti-peptide antibody production	1+	2+	2+	weak responses	strong T cell response	
VLENVTENFNM [Peptide 108]	+	high antibody titers	+	+	−	+							
VQCTHGIRPVVSTQ [Peptide 117]	++++	high antibody titers	−	+++									
VYYGVPVWKEA [Peptide 104]	•	very low to negligible amounts of anti-peptide antibodies	++	++++	+	+++		4+	2+	4+	good proliferative responses		
YLRDQQLLGIWGC [Peptide 61, gp160 aa 586-598]	−	very low to negligible amounts of anti-peptide antibodies	+	++	++	++	do not stimulate anti-peptide antibody production	—	3+	2+	Two of the three rhesus monkey-derived PBMC preparations also showed good proliferative responses	strong T cell response	
